The results in this text go back to PMC6251916, “CKD-506, a novel HDAC6-selective inhibitor, improves renal outcomes and survival in a mouse model of systemic lupus erythematosus” (Scientific Reports, 2018).

For one assay, the system named is other HDAC isoforms. Put plainly: HDAC panel assay (enzyme activity). The format is biochemical. The protocol: (§1) HDAC panel assay was performed by Reaction biology Corp. (Malvern, PA, USA) according to their validated protocol. To evaluate the potency and selectivity of CKD-506, HDAC panel assay was carried out by Reaction biology Corp. Briefly, the deacetylation reaction was performed in 50 mM Tris-HCl pH 8.0, 137 mM NaCl, 2.7 mM KCl, 1 mM MgCl2, and 1 mg/ml bovine serum albumin (BSA) with RHK-K(Ac)-AMC as substrate. After the reaction, a fluorescence signal (Ex. 360 nm/Em. 460 nm) developed (~30 min.) by addition of an equal volume of 2 mM nicotinamide, 16 mg/mL trypsin in 50 mM Tris-HCl pH 8.0, 137 mM NaCl, 2.7 mM KCl, and 1 mM MgCl2.

For a further assay, the target named is T1, HDAC7 (Homo sapiens, UniProt Q8WUI4).
T1 construct: purchased Reaction biology Corp. (Malvern, PA, USA)
T1 sequence (Q8WUI4 1-952): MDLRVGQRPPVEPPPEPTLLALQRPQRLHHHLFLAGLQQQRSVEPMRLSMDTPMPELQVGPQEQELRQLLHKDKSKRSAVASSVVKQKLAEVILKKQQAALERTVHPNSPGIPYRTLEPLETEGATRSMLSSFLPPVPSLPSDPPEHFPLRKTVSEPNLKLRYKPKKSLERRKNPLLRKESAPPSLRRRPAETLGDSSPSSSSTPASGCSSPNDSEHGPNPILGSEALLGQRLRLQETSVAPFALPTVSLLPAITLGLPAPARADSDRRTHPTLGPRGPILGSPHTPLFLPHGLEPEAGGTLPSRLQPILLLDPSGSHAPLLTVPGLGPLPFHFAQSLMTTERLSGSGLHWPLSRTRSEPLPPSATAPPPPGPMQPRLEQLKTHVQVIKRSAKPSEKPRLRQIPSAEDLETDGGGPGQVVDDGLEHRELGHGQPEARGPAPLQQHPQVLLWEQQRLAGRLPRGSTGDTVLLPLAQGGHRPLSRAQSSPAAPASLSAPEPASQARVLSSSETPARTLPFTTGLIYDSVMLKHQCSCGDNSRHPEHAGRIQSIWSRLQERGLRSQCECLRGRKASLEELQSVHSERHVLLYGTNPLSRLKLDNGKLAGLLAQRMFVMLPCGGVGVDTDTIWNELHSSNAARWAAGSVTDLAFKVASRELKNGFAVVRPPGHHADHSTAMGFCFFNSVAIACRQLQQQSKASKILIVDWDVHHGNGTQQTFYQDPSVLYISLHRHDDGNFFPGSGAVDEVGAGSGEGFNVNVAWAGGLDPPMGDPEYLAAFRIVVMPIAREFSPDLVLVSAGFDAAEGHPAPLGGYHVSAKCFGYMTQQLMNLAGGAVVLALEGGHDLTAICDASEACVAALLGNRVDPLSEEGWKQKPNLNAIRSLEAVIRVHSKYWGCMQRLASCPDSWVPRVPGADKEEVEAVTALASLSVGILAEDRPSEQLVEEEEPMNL
Nature of the assay: HDAC panel assay (enzyme activity). Format: biochemical. The procedure: as §1

The target of a further assay is T2, HDAC8 (Homo sapiens, UniProt Q9BY41).
T2 construct: purchased Reaction biology Corp. (Malvern, PA, USA)
T2 sequence (Q9BY41 1-377): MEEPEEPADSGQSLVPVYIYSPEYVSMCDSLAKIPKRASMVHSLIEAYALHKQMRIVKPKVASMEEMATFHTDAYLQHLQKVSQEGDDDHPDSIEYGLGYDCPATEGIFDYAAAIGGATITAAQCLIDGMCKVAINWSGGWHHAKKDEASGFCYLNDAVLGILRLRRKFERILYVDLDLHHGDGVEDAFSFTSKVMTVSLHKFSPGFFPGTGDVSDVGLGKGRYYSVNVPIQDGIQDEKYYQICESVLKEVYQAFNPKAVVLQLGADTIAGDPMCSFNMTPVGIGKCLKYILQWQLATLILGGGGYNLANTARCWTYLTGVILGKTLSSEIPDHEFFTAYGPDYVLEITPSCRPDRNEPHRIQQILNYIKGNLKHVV
Nature of the assay: HDAC panel assay (enzyme activity). The format is biochemical. The protocol: as §1

In a further assay the target is T3, HDAC2 (Homo sapiens, UniProt Q92769).
T3 construct: purchased Reaction biology Corp. (Malvern, PA, USA)
T3 sequence (Q92769 whole entry): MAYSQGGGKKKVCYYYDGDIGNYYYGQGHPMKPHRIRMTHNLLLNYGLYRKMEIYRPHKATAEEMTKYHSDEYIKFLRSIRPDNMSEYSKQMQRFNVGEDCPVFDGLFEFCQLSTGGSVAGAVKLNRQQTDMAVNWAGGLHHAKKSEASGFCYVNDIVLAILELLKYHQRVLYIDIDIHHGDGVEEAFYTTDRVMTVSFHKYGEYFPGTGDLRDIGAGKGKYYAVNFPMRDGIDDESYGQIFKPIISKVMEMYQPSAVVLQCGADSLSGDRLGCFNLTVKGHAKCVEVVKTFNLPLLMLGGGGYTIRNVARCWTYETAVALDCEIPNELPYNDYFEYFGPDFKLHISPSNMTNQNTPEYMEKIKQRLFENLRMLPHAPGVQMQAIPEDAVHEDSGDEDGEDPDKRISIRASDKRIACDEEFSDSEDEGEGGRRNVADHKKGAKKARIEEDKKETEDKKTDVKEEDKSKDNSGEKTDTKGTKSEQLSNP
Put plainly: HDAC panel assay (enzyme activity). Format: biochemical. The protocol:
as §1

Another assay addresses T4, HDAC1 (Homo sapiens, UniProt Q13547).
T4 construct: purchased Reaction biology Corp. (Malvern, PA, USA)
Put plainly: HDAC panel assay (enzyme activity). The format is biochemical. The procedure: as §1

The next assay concerns NZB/W F1 female mice. Nature of the assay: Murine SLE model: flow cytometry of splenocytes. The format is in vivo, mouse. The text has this: Single cell suspensions were obtained from the spleens of NZB/W F1 mice at autopsy (at 43–44 weeks of age). The splenocytes were stained with PerCP-Cy5.5-conjugated anti-mouse CD3e (PerCP-cy5.5-CD3e, eBioscience, San Diego, CA, USA), fluorescein isothiocyanate (FITC)-conjugated anti-mouse CD4 (FITC-CD4, BD Biosciences, San Jose, CA, USA), PE-cyanine7-conjugated anti-mouse CD8a (eBioscience), allo-phycocyanin (APC)-conjugated anti-mouse CD25 (BD Biosciences) and PE-conjugated anti-mouse CD138 (BD Biosciences).
T cell profile was analyzed as described previously; briefly, we examined proportions of Th1 cells (CD4^+CD25^+T-bet^+), Th2 cells (CD4^+CD25^+GATA-3^+), Th17 cells (CD4^+CD25^+ROR-γt^+), and Treg cells (CD4^+CD25^+Foxp3^+). To analyze T helper subsets, the splenocytes were stained with antibodies to CD4 and CD25 (FITC-conjugated anti-mouse CD4 and APC-conjugated anti-mouse CD25, BD Biosciences). Cells were fixed and permeabilized prior to staining with T-bet, GATA-3, ROR-γt and Foxp3 antibodies (PE-, BD Biosciences).
A general note: In flow cytometry, cells or beads pass a laser one at a time.

T4 sequence (Q13547 whole entry): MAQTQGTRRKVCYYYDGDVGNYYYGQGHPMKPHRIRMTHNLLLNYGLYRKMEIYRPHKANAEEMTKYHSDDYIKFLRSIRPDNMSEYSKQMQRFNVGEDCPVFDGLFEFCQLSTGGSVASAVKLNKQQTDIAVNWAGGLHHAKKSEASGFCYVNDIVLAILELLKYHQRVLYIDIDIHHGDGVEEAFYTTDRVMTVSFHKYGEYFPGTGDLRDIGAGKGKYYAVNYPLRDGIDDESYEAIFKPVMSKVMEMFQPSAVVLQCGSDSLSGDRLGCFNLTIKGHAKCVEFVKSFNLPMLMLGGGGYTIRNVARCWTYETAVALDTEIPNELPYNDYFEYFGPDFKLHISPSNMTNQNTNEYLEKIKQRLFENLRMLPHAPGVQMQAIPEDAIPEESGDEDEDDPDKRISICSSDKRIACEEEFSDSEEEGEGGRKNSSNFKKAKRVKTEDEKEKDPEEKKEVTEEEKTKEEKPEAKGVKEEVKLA

As to CKD-506, in the assay with other HDAC isoforms, the “inhibition of enzyme activity of other HDAC isoforms” value is “does not inhibit”. In addition, the IC50 at HDAC7, against HDAC8, against HDAC2 and against HDAC1 was 2 to 5 µM in each case. The “fewer CD4−CD8− cells compared with group vehicle” value is recorded as 19.1% in the assay with NZB/W F1 female mice (group CKD10, spleen); 28.3% in the assay with NZB/W F1 female mice (group CKD30, spleen); 27.3% in the assay with NZB/W F1 female mice (group CKD50, spleen). The “fewer CD138+ cells compared with group vehicle” value in the assay on NZB/W F1 female mice (group CKD10, spleen) worked out at 21.2%; in the assay on NZB/W F1 female mice (group CKD30, spleen), 25.2%; in the assay with NZB/W F1 female mice (group CKD50, spleen), 31.6%. The “CD4−CD8+ T cells in spleen vs vehicle” value with NZB/W F1 female mice (group CKD50) is “significantly more”. Further, the “percentage of CD25+ cells in spleen vs vehicle” value in the assay with NZB/W F1 female mice (group CKD50) is listed as “significantly lower”. Also, the “T-bet expression by CD4+ cells vs vehicle” value in the assay with NZB/W F1 female mice (group CKD50, spleen) was “significantly lower”.
